The source of these data is patent US10308637B2 (LifeSci Pharmaceuticals, Inc., priority 2015, dated 2019).

The nature of this test: Contact Assay (percentage inhibition from fluorescence intensity). Type of test: biochemical. The procedure: The percentage inhibition was calculated using the following equation:
[formula] where, Mean(BG) is the average value of the fluorescence intensity of the background wells and Mean(PC) is the average value of the fluorescence intensity of the positive control wells.
Table 4 provides the EC50 values of various compounds disclosed herein.
In the case of `Cc1cnc2c(S(C)(=O)=O)cc(Cc3cc(C(=O)NCc4c(C)cc(N)nc4C)ccn3)cc2c1` [Example 15, N-((6-amino-2,4-dimethylpyridin-3-yl)methyl)-2-((3-methyl-8-(methylsulfonyl)quinolin-6-yl)methyl)isonicotinamide], the EC50 was at most 100 nM. The compound `Cc1cnc2c(S(C)(=O)=O)cc(Cc3cc(C(=O)NCc4ccc5c(N)nccc5c4)ccn3)cc2c1` [Example 16, N-((1-aminoisoquinolin-6-yl)methyl)-2-((3-methyl-8-(methylsulfonyl)quinolin-6-yl)methyl)isonicotinamide] yielded an EC50 of at most 100 nM.

The compound `Cc1cnc2c(S(C)(=O)=O)cc(Cc3cc(C(=O)NCc4cc5c(Cl)c[nH]c5cc4F)ccn3)cc2c1` [Example 17, N-((3-chloro-6-fluoro-1H-indol-5-yl)methyl)-2-((3-methyl-8-(methylsulfonyl)quinolin-6-yl)methyl)isonicotinamide] gave a concentration for a half-maximal effect (EC50) of at most 100 nM. Regarding `Cc1cnc2c(S(C)(=O)=O)cc(Cc3cc(C(=O)NCc4cc5cc[nH]c5cc4F)ccn3)cc2c1` [Example 18, N-((6-fluoro-1H-indol-5-yl)methyl)-2-((3-methyl-8-(methylsulfonyl)quinolin-6-yl)methyl)isonicotinamide], the concentration for a half-maximal effect (EC50) is 100 to 1000 nM.

The compound `Cc1cnc2c(S(C)(=O)=O)cc(Cc3cc(C(=O)NCc4n[nH]c5ccc(Cl)cc45)ccn3)cc2c1` [Example 20, N-((5-chloro-1H-indazol-3-yl)methyl)-2-((3-methyl-8-(methylsulfonyl)quinolin-6-yl)methyl)isonicotinamide] showed an EC50 of at most 100 nM. Regarding `Cc1cnc2c(S(C)(=O)=O)cc(Cc3cc(C(=O)NCc4ccc5[nH]cc(Cl)c5c4F)ccn3)cc2c1` [Example 21, N-((3-chloro-4-fluoro-1H-indol-5-yl)methyl)-2-((3-methyl-8-(methylsulfonyl)quinolin-6-yl)methyl)isonicotinamide], the EC50 is at most 100 nM.

The compound `Cc1nc(N)ccc1CNC(=O)c1ccnc(Cc2ccc3ncc(Cl)cc3c2)c1` [Example 34, N-((6-amino-2-methylpyridin-3-yl)methyl)-2-((3-chloroquinolin-6-yl)methyl)isonicotinamide] returned an EC50 of at most 100 nM.

In turn, `Cc1cc(N)nc(C)c1CNC(=O)c1ccnc(Cc2ccc3ncc(Cl)cc3c2)c1` [Example 35, N-((6-amino-2,4-dimethylpyridin-3-yl)methyl)-2-((3-chloroquinolin-6-yl)methyl)isonicotinamide] showed an EC50 of at most 100 nM. Turning to `O=C(NCc1cnc2[nH]cc(Cl)c2c1)c1ccnc(Cc2ccc3ncc(Cl)cc3c2)c1` [Example 38, N-(3-Chloro-1H-pyrrolo[2,3-b]pyridin-5-ylmethyl)-2-(3-chloro-quinolin-6-ylmethyl)-isonicotinamide], the 50% effective concentration (EC50) lay in the range of 100 to 1000 nM.

Regarding `O=C(NCc1ccc2[nH]cc(Cl)c2c1F)c1ccnc(Cc2ccc3ncc(Cl)cc3c2)c1` [Example 40, N-(3-Chloro-4-fluoro-1H-indol-5-ylmethyl)-2-(3-chloro-quinolin-6-ylmethyl)-isonicotinamide], the EC50 was 100 to 1000 nM. On to `N#Cc1cc(Cc2cc(C(=O)NCc3ccc4c(N)nccc4c3)ccn2)cc2cc(Cl)cnc12` [Example 57, N-(1-amino-isoquinolin-6-ylmethyl)-2-(3-chloro-8-cyano-quinolin-6-ylmethyl)-isonicotinamide], for which the EC50 lay within 100 to 1000 nM. `NC(=O)c1cc(Cc2cc(C(=O)NCc3n[nH]c4ccc(Cl)cc34)ccn2)cc2cc(Cl)cnc12` [Example 60, 3-chloro-6-((4-(((5-chloro-1H-indazol-3-yl)methyl)carbamoyl)pyridin-2-yl)methyl)quinoline-8-carboxamide] displayed an EC50 of 100 to 1000 nM. The result for `NC(=O)c1cc(Cc2cc(C(=O)NCc3cnc4[nH]cc(Cl)c4c3)ccn2)cc2cc(Cl)cnc12` [Example 61, 3-chloro-6-((4-(((3-chloro-1H-pyrrolo[2,3-b]pyridin-5-yl)methyl)carbamoyl)pyridin-2-yl)methyl)quinoline-8-carboxamide] reads 100 to 1000 nM; that for `Cc1nc(N)ccc1CNC(=O)c1ccnc(Cc2cc(C(N)=O)c3ncc(Cl)cc3c2)c1` [Example 62, 6-((4-(((6-amino-2-methylpyridin-3-yl)methyl)carbamoyl)pyridin-2-yl)methyl)-3-chloroquinoline-8-carboxamide], at most 100 nM; that for `NC(=O)c1cc(Cc2cc(C(=O)NCc3ccc4c(N)nccc4c3)ccn2)cc2cc(Cl)cnc12` [Example 64, 6-((4-(((1-aminoisoquinolin-6-yl)methyl)carbamoyl)pyridin-2-yl)methyl)-3-chloroquinoline-8-carboxamide], at most 100 nM. The compound `NC(=O)c1cc(Cc2cc(C(=O)NCc3ccc4[nH]cc(Cl)c4c3F)ccn2)cc2cc(Cl)cnc12` [Example 65, 3-chloro-6-((4-(((3-chloro-4-fluoro-1H-indol-5-yl)methyl)carbamoyl)pyridin-2-yl)methyl)quinoline-8-carboxamide] registered an EC50 of at most 100 nM. For `NC(=O)c1cc(Cc2cc(C(=O)NCc3cc4cc[nH]c4cc3F)ccn2)cc2cc(Cl)cnc12` [Example 66, 3-chloro-6-((4-(((6-fluoro-1H-indol-5-yl)methyl)carbamoyl)pyridin-2-yl)methyl)quinoline-8-carboxamide], the EC50 fell in the range of 100 to 1000 nM.

`Cc1cc(N)nc(C)c1CNC(=O)c1ccnc(Cc2cc(S(C)(=O)=O)c3ncc(Cl)cc3c2)c1` [Example 67, N-((6-amino-2,4-dimethylpyridin-3-yl)methyl)-2-((3-chloro-8-(methylsulfonyl)quinolin-6-yl)methyl)isonicotinamide] registered a 50% effective concentration (EC50) of at most 100 nM. For `CS(=O)(=O)c1cc(Cc2cc(C(=O)NCc3cc4c(Cl)c[nH]c4cc3F)ccn2)cc2cc(Cl)cnc12` [Example 68, N-((3-chloro-6-fluoro-1H-indol-5-yl)methyl)-2-((3-chloro-8-(methylsulfonyl)quinolin-6-yl)methyl)isonicotinamide], the concentration giving a half-maximal response (EC50) is at most 100 nM.

As to `Cc1nc(N)ccc1CNC(=O)c1ccnc(Cc2cc(S(C)(=O)=O)c3ncc(Cl)cc3c2)c1` [Example 69, N-((6-amino-2-methylpyridin-3-yl)methyl)-2-((3-chloro-8-(methylsulfonyl)quinolin-6-yl)methyl)isonicotinamide], the EC50 was at most 100 nM.

In the case of `Cc1cnc2c(C#N)cc(Cc3cc(C(=O)NCc4c(C)cc(N)nc4C)ccn3)cc2c1` [Example 70, N-((6-amino-2,4-dimethylpyridin-3-yl)methyl)-2-((8-cyano-3-methylquinolin-6-yl)methyl)isonicotinamide], the EC50 was at most 100 nM. The compound `Cc1cnc2c(C#N)cc(Cc3cc(C(=O)NCc4ccc5c(N)nccc5c4)ccn3)cc2c1` [Example 71, N-((1-aminoisoquinolin-6-yl)methyl)-2-((8-cyano-3-methylquinolin-6-yl)methyl)isonicotinamide] had an EC50 of at most 100 nM.

The compound `Cc1cnc2c(C#N)cc(Cc3cc(C(=O)NCc4cnc5[nH]cc(Cl)c5c4)ccn3)cc2c1` [Example 73, N-((3-chloro-1H-pyrrolo[2,3-b]pyridin-5-yl)methyl)-2-((8-cyano-3-methylquinolin-6-yl)methyl)isonicotinamide] came in with an EC50 of 100 to 1000 nM.

`Cc1cnc2c(C(N)=O)cc(Cc3cc(C(=O)NCc4c(C)cc(N)nc4C)ccn3)cc2c1` [Example 77, 6-((4-(((6-amino-2,4-dimethylpyridin-3-yl)methyl)carbamoyl)pyridin-2-yl)methyl)-3-methylquinoline-8-carboxamide]: the EC50 is at most 100 nM. The result for `Cc1cnc2c(C(N)=O)cc(Cc3cc(C(=O)NCc4cc5c(Cl)c[nH]c5cc4F)ccn3)cc2c1` [Example 78, 6-((4-(((3-chloro-6-fluoro-1H-indol-5-yl)methyl)carbamoyl)pyridin-2-yl)methyl)-3-methylquinoline-8-carboxamide] reads at most 100 nM; that for `Cc1cnc2c(C(N)=O)cc(Cc3cc(C(=O)NCc4ccc5c(N)nccc5c4)ccn3)cc2c1` [Example 79, 6-((4-(((1-aminoisoquinolin-6-yl)methyl)carbamoyl)pyridin-2-yl)methyl)-3-methylquinoline-8-carboxamide], at most 100 nM; that for `Cc1cnc2c(C(N)=O)cc(Cc3cc(C(=O)NCc4cnc5[nH]cc(Cl)c5c4)ccn3)cc2c1` [Example 80, 6-((4-(((3-chloro-1H-pyrrolo[2,3-b]pyridin-5-yl)methyl)carbamoyl)pyridin-2-yl)methyl)-3-methylquinoline-8-carboxamide], at most 100 nM. The compound `Cc1cnc2c(C(N)=O)cc(Cc3cc(C(=O)NCc4cc5cc[nH]c5cc4F)ccn3)cc2c1` [Example 83, 6-((4-(((6-fluoro-1H-indol-5-yl)methyl)carbamoyl)pyridin-2-yl)methyl)-3-methylquinoline-8-carboxamide] showed an EC50 of 100 to 1000 nM. The result for `Cc1cnc2c(C(=O)O)cc(Cc3cc(C(=O)NCc4c(C)cc(N)nc4C)ccn3)cc2c1` [Example 84, 6-((4-(((6-amino-2,4-dimethylpyridin-3-yl)methyl)carbamoyl)pyridin-2-yl)methyl)-3-methylquinoline-8-carboxylic acid] reads at most 100 nM. On to `Cc1cc(N)nc(C)c1CNC(=O)c1ccnc(Cc2cc(F)c3ncc(Cl)cc3c2)c1` [Example 89, N-(6-amino-2,4-dimethyl-pyridin-3-ylmethyl)-2-(3-chloro-8-fluoro-quinolin-6-ylmethyl)-isonicotinamide], for which the EC50 is at most 100 nM. Regarding `Cc1nc(N)ccc1CNC(=O)c1ccnc(Cc2cc(F)c3ncc(Cl)cc3c2)c1` [Example 91, N-(6-amino-2-methyl-pyridin-3-ylmethyl)-2-(3-chloro-8-fluoro-quinolin-6-ylmethyl)-isonicotinamide], the EC50 is at most 100 nM. For `COC(=O)c1cc(Cc2cc(C(=O)NCc3c(C)cc(N)nc3C)ccn2)cc2cc(Cl)cnc12` [Example 92, methyl 6-((4-(((6-amino-2,4-dimethylpyridin-3-yl)methyl)carbamoyl)pyridin-2-yl)methyl)-3-chloroquinoline-8-carboxylate], the EC50 was at most 100 nM.
